Key:
Details in all cases: incubation time: 72 h
[1] = test system: DU-4475; assay: normalised viability (% of control), CellTiter-Blue; higher = more viable cells (about 100 = DMSO control)
Outline: (§1)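 Each entry is normalised viability at a single listed concentration within a series. It comes from breast cancer cell lines incubated 72 h with compound in 384-well plates, then measured with CellTiter-Blue fluorescence at 560/590 nm. Every plate was normalised between vehicle (100) and a positive kill control (0).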

[2] = test system: CAL-148; assay: as above
Outline: as §1

[3] = test system: CAL-85-1; assay: as above
Outline: as §1

[4] = test system: CAL-51; assay: as above
Outline: as §1

[5] = test system: MDA-MB-453; assay: as above
Outline: as §1

[6] = test system: HDQ-P1; assay: as above
Outline: as §1

[7] = test system: CAL-85-1; assay: normalised response (% of control), CellTiter-Glo; higher = more viable cells (100 = DMSO, 0 = benzethonium chloride kill control)
Outline: (§2)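 Each value is the plate-normalised signal at one concentration of the series. Breast cancer cell lines (20 µl suspension) were incubated 72 h in 384-well plates with compound at 5 concentrations in 10-fold steps over a compound-specific 10,000-fold range. CellTox Green and then CellTiter-Glo were read, and each plate was scaled to 0.1 % DMSO (100) and a positive kill control (0).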

[8] = test system: MDA-MB-231; assay: as above
Outline: as §2

[9] = test system: HCC1143; assay: as above
Outline: as §2

[10] = test system: CAL-51; assay: as above
Outline: as §2

[11] = test system: HCC1937; assay: as above
Outline: as §2

[12] = test system: MDA-MB-453; assay: as above
Outline: as §2

[13] = test system: SK-BR-3; assay: as above
Outline: as §2

Structure (SMILES) | normalised viability [1] | normalised viability [2] | normalised viability [3] | normalised viability [4] | normalised viability [5] | normalised viability [6] | normalised response [7] | normalised response [8] | normalised response [9] | normalised response [10] | normalised response [11] | normalised response [12] | normalised response [13]
O=c1[nH]cc(F)c(=O)[nH]1 [Fluorouracil] (10000 nM) | 75.2% | 55.4% | 58.3% | 47.9% | 72.9% | 74.4% |  |  |  |  |  |  | 
C[C@@H]1C=C2C(=O)O[C@@H]3CC[C@H](C1)[C@]23O [Galiellalactone] (5000 nM) |  |  |  |  |  |  | 96.2% | 114% | 101% | 71.9% | 98.4% | 105% | 102%
C[C@@H]1C=C2C(=O)O[C@@H]3CC[C@H](C1)[C@]23O [Galiellalactone] (50000 nM) | 77.4% | 22.4% | 9.47% | 43.1% | 9.52% | 41.7% |  |  |  |  |  |  | 
COC1=C2C[C@@H](C)C[C@H](OC)[C@H](O)[C@@H](C)/C=C(\C)[C@H](OC(N)=O)[C@@H](OC)/C=C\C=C(/C)C(=O)NC(=CC1=O)C2=O [Geldanamycin] (1000 nM) |  |  |  |  |  |  | 92.7% | 97.9% | 102% | 96.2% | 89.8% | 96.6% | 87.1%
COC1=C2C[C@@H](C)C[C@H](OC)[C@H](O)[C@@H](C)/C=C(\C)[C@H](OC(N)=O)[C@@H](OC)/C=C\C=C(/C)C(=O)NC(=CC1=O)C2=O [Geldanamycin] (10000 nM) | -0.94% | 7.57% | 6.88% | 2.17% | 7.62% | 14.5% |  |  |  |  |  |  | 
Cn1cnc2c(F)c(Nc3ccc(Br)cc3F)c(C(=O)NOCCO)cc21 [MEK-162] (100 nM) |  |  |  |  |  |  | 99.2% | 92% | 90.5% | 104% | 95% | 104% | 101%
Cn1cnc2c(F)c(Nc3ccc(Br)cc3F)c(C(=O)NOCCO)cc21 [MEK-162] (1000 nM) | -0.34% | 90.6% | 70.5% | 84.5% | 122% | 91.2% |  |  |  |  |  |  | 
CCOc1cc2ncc(C#N)c(Nc3ccc(OCc4ccccn4)c(Cl)c3)c2cc1NC(=O)/C=C/CN(C)C [Neratinib] (100 nM) |  |  |  |  |  |  | 67.9% | 102% | 98.8% | 112% | 88% | 68% | 25%
CCOc1cc2ncc(C#N)c(Nc3ccc(OCc4ccccn4)c(Cl)c3)c2cc1NC(=O)/C=C/CN(C)C [Neratinib] (1000 nM) | 105% | 79.5% | 101% | 92.5% | 75.8% | 116% |  |  |  |  |  |  | 
COc1ccc(C2=N[C@@H](c3ccc(Cl)cc3)[C@@H](c3ccc(Cl)cc3)N2C(=O)N2CCNC(=O)C2)c(OC(C)C)c1 [Nutlin-3] (1000 nM) |  |  |  |  |  |  | 96.8% | 106% | 99.8% | 83.9% | 102% | 102% | 109%
COc1ccc(C2=N[C@@H](c3ccc(Cl)cc3)[C@@H](c3ccc(Cl)cc3)N2C(=O)N2CCNC(=O)C2)c(OC(C)C)c1 [Nutlin-3] (10000 nM) | 36.1% | 57.3% | 86.6% | 53.3% | 90% | 111% |  |  |  |  |  |  | 
COC1=CC(c2cc3ccccc3[nH]2)=N/C1=C\c1[nH]c(C)cc1C [Obatoclax] (1000 nM) |  |  |  |  |  |  | 76.6% | 64% | 87.4% | 99.5% | 63.4% | 96.3% | 87%
COC1=CC(c2cc3ccccc3[nH]2)=N/C1=C\c1[nH]c(C)cc1C [Obatoclax] (10000 nM) | 30% | 10.8% | 22.1% | 6.23% | 18.6% | 35.5% |  |  |  |  |  |  | 
CC(=O)O[C@H]1C(=O)[C@@]2(C)[C@H]([C@H](OC(=O)c3ccccc3)[C@]3(O)C[C@H](OC(=O)[C@H](O)[C@@H](NC(=O)c4ccccc4)c4ccccc4)C(C)=C1C3(C)C)[C@]1(OC(C)=O)CO[C@@H]1C[C@@H]2O [Paclitaxel] (100 nM) |  |  |  |  |  |  | 20.9% | 33.2% | 30.7% | 29.3% | 66.2% | 57.5% | 10.2%
CC(=O)O[C@H]1C(=O)[C@@]2(C)[C@H]([C@H](OC(=O)c3ccccc3)[C@]3(O)C[C@H](OC(=O)[C@H](O)[C@@H](NC(=O)c4ccccc4)c4ccccc4)C(C)=C1C3(C)C)[C@]1(OC(C)=O)CO[C@@H]1C[C@@H]2O [Paclitaxel] (1000 nM) | 1.41% | 14.7% | 33.1% | 10.7% | 21% | 32.7% |  |  |  |  |  |  | 
CC(C)(C)c1cc(NC(=O)Nc2ccc(-c3cn4c(n3)sc3cc(OCCN5CCOCC5)ccc34)cc2)no1 [Quizartinib] (100 nM) |  |  |  |  |  |  | 102% | 108% | 105% | 107% | 102% | 104% | 105%
O=C(c1ccc(OCCN2CCCCC2)cc1)c1c(-c2ccc(O)cc2)sc2cc(O)ccc12 [Raloxifene] (1000 nM) |  |  |  |  |  |  | 94.4% | 107% | 110% | 121% | 100% | 103% | 105%
Cn1c(=O)c(F)c(Nc2ccc(I)cc2F)c2c(=O)n(C[C@@H](O)CO)cnc21 [TAK-733] (100 nM) |  |  |  |  |  |  | 69.8% | 78% | 93.5% | 64.6% | 82.7% | 123% | 117%
CCS(=O)(=O)c1cccc(-c2cc(C(=O)NC3CCN(C)CC3)c(C)c3[nH]c4ncc(C)cc4c23)c1 [TAK-901] (100 nM) |  |  |  |  |  |  | 103% | 77.6% | 77.2% | 82.4% | 102% | 160% | 106%
